The source of these data is patent US20160333006A1, “ARYL LACTA KINASE INHIBITORS” (Bristol-Myers Squibb Company, priority 2014, published 2016).

A word on the IC50: it is the concentration that gives 50% inhibition.

In assay [1] the test system is mice. The assay can be described thus: formalin paw test. The class given is in vivo, mouse. On the procedure: AAK1 homozygous (−/−) and their wild-type (+/+) littermates were tested using the formalin paw test in order to assess their acute and tonic nociceptive responses. For these tests, Automatic Nociception Analyzers (purchased from the Ozaki lab at University of California, San Diego) were used. A metal band was placed around the left hind paw of each mouse 30 minutes prior to testing. After the 30-minute acclimation period, 20 μl of 5% formalin is subcutaneously injected in the dorsal surface of the left hind paw. Mice were individually housed in cylindrical chambers for 45 minutes. Fresh 5% formalin solution was prepared by diluting formaldehyde (Formalde-fresh 20%, Fisher Scientific, Fair Lawn, N.J.) with distilled water. Investigatory compounds were administered 30 minutes prior to formalin injection.
A computer recorded flinches per minute, total flinches for phase I (acute phase=first 8 minutes), and total flinches for phase II (tonic phase=time between minutes 20-40) through an electromagnetic field. See Yaksh T L, Ozaki G, McCumber D, Rathbun M, Svensson C, Malkmus S, Yaksh M C. An automated flinch detecting system for use in the formalin nociceptive bioassay. J Appl Physiol., 2001; 90:2386-402.
The same test was used to confirm that the administration of an AAK1 inhibitor can also affect pain response.
A compound of the disclosure was tested in this assay at different doses. Gabapentin and pregabalin were used as positive controls. Results are shown below in Table 2, wherein the effect of gabapentin at 200 mg/kg is considered a 100% response, the % response for the other compounds is relative to the 200 mg/kg dose of gabapentin, “sc” means subcutaneous administration; “po” means oral administration.

The target in assay [2] is T1, GST-Xa-hAAK1 (Homo sapiens, UniProt Q2M2I8).
T1 construct: made in house
T1 sequence (Q2M2I8 whole entry): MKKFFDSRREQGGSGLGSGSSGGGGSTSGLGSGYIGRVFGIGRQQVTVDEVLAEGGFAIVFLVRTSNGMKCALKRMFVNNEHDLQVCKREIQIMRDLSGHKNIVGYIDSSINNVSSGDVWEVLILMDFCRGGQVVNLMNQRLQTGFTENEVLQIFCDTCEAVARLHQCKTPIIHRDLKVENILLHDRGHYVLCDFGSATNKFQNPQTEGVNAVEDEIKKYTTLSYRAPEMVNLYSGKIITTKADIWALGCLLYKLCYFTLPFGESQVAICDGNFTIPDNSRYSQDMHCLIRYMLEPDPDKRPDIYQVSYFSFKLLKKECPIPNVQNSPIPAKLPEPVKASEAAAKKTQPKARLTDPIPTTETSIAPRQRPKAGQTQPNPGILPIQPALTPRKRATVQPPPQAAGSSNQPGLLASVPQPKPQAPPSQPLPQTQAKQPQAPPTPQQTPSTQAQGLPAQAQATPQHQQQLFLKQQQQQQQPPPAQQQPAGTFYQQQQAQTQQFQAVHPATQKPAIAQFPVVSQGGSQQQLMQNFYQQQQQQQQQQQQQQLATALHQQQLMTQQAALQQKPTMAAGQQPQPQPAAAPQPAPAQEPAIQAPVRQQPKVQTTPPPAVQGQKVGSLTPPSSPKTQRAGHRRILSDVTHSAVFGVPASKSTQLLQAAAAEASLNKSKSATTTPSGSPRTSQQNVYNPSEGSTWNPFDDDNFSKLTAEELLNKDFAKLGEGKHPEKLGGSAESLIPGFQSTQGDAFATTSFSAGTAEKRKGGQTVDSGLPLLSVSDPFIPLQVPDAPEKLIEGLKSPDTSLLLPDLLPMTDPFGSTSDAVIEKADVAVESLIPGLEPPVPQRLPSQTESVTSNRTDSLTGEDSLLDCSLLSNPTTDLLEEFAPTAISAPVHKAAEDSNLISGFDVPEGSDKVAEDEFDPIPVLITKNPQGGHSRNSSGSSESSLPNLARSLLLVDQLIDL
Briefly: AAK1 kinase assay. The format is biochemical. The settings on record: ATP 22 μM. The method, then:
The assays were performed in U-bottom 384-well plates. […] The reactions were initiated by the combination of bacterially expressed, GST-Xa-hAAK1 with substrates and test compounds. The reactions were incubated at room temperature for 3 hours and terminated by adding 60 μl of 35 mM EDTA buffer to each sample. The reactions were analyzed on the Caliper LabChip 3000 (Caliper, Hopkinton, Mass.) by electrophoretic separation of the fluorescent substrate and phosphorylated product. […] Compounds were dissolved at 10 mM in dimethylsulfoxide (DMSO) and evaluated at eleven concentrations. IC50 values were derived by non-linear regression analysis.

Assay [3] deals with T2, AAK1 (full length human) in HEK293F cells (Homo sapiens, UniProt Q2M2I8).
T2 construct: fused on or other part: HA tag (AAK1/HA in pIRES vector)
T2 sequence (Q2M2I8 1-822 limits assumed): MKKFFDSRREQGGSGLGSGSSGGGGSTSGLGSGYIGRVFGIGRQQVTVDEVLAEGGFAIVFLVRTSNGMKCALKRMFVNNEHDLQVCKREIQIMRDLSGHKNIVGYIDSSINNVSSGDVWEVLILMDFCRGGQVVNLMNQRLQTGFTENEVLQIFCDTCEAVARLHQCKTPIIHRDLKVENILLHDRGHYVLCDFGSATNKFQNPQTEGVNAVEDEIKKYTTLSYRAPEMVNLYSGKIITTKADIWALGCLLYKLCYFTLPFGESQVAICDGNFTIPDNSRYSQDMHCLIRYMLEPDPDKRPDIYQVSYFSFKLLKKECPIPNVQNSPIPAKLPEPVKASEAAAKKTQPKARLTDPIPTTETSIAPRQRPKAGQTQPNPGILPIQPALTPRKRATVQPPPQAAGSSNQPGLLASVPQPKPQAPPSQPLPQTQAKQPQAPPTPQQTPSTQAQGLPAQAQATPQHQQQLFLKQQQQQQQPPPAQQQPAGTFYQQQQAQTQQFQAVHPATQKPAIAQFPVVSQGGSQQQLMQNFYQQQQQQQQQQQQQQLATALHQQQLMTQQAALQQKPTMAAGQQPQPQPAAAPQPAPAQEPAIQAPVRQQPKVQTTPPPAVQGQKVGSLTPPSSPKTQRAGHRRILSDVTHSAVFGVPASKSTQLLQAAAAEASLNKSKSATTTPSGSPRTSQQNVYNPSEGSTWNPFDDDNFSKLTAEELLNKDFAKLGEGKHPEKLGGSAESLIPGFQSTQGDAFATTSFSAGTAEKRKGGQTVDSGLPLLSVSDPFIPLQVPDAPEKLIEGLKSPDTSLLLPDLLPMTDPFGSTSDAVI
The assay can be described thus: HEK281 cell-based assay (phospho-mu2 Western blot in transfected HEK293F cells). The settings on record: 3 hours. On the procedure: On day one, cells were plated on a 10 cm dish so that they are ˜80% confluent at time oftransfection. Roughly 12 million cells were in a 10 cm dish at time of transfection. […] The DNA was comprised of a mixture (per 10 cm dish) containing 3 ug AAK1/HA/pIRES (full length human, NCBI accession no. NP_055726.2), 45 μg Flag/AP2MI/pcDNA (full length human), and 1.5 ml OPTI-MEM. The Lipofectamine 2000 is made up of a mixture (per 10 cm dish) containing 144 μl Lipofectamine 2000 and 1.5 ml OPTI-MEM. Each mixture was transferred to individual 15 ml tubes and incubated at RT for 5 minutes, and then the two mixes were combined and incubated at RT for 20 minutes. Growth media was then aspirated from each 10 cm plate and replaced with 10 ml of DMEM+10% FBS (no GPS). Finally, 3 ml DNA/Lipofectamine mix was added to each 10 cm dish and mix gently followed by incubate of plate overnight at 37° C. and 5% CO2.
On day three, compounds were diluted in 100% DMSO at 1000× final concentration, followed by 3-fold serial dilutions for a total of 5 concentrations tested. Four compounds were tested per 10 cm dish. One ul of each compound dilution was then pipetted into a deep-well, 96-well plate, followed by addition of 500 μl DMEM+0.5% FBS into each well for a 2× final concentration of each compound. Cells were resuspended in a 10 cm dish by simple pipetting (HEK293 cells come off the plate that easy at this point) and then transferred to a 50 ml conical tube and pelleted by centrifugation at 1000 rpm for 5 min. Cell pellets were then resuspended in 2.75 ml DMEM+0.5% FBS per 10 cm dish and 100 μl of cell suspension transferred into each well of 96-well TC plate. Finally, 100 μl of 2× compound diluted in DMEM+0.5% FBS was then added into wells containing cell suspension for a 1× final concentration. Plates were then incubated at 37° C. and 5% CO2 for 3 hours followed by transferring of cell suspensions from each well into 12-tube PCR strips. The PCR strips were spun in a tip rack at 1000 rpm for 5 minutes to pellet cells and media was then removed by pipetting without disturbing the cell pellet.
Five ul of 10× NuPage Sample Reducing Agent (with 50 mM DTT) was to each sample followed by heat denaturing at 70 C for 10 min on PCR machine. […] For controls, 2 ng of phospho-mu2 or 20 ng mu2/Flag proteins were loaded in the last well of each gel. After SDS-PAGE, samples on each gel were transferred to PVDF membrane using an iBlot and membranes were blocked for one hour in TBST+5% milk, followed by wash 3× for 5-10 min with TBST.
Finally, the camera was set up to take a picture every 30 seconds for 10 minutes and the best image saved for each blot with no saturated signal (when the signal is saturated, the bands will be highlighted red). A volume analysis on each band was performed to obtain density values. Percent inhibition was calculated for each sample by first normalizing to total Mu2 expression levels and then comparing to 0% and 100% controls. IC50 values were then calculated using Excel fitting software.

The mark [4] stands for this setting: phospho-mu2, given as IC50 range.
The mark [5] stands for this setting: phospho-mu2 normalized to total Mu2.
The mark [6] stands for this setting: 50 mg/kg sc, relative to gabapentin 200 mg/kg = 100% response.

`CC(C)C[C@H](N)COc1cc2c(cc1F)c1ccncc1c(=O)n2C` [Example 14, (S)-8-((2-amino-4-methylpentyl)oxy)-9-fluoro-6-methylbenzo[c][2,7]naphthyridin-5(6H)-one] registered a Response in assay [1] (30 mg/kg po, relative to gabapentin 200 mg/kg = 100% response) of 62%.
Turning to `Cc1nccc2c1c(=O)n(C)c1cc(OC[C@@H](N)CC(C)C)c(Br)cc21` [Example 122, (S)-8-((2-amino-4-methylpentyl)oxy)-9-bromo-4,6-dimethylbenzo[c][2,7]naphthyridin-5(6H)-one], the concentration for half-maximal inhibition (IC50) in assay [2] (given as IC50 range) and in assay [3] (setting [4]) was 1 to 10 nM each time.
For `Cn1c(=O)c2cnccc2c2cc(C#N)c(OCC(N)CCC(F)(F)F)cc21` (stereo not drawn) [Example 126, 8-((2-amino-5,5,5-trifluoropentyl)oxy)-6-methyl-5-oxo-5,6-dihydrobenzo[c][2,7]naphthyridine-9-carbonitrile], the IC50 in assay [2] (3 hours at room temperature) came to 16 nM; in assay [3] (setting [5]) it was 56 nM.
For `Cc1nccc2c1c(=O)n(C)c1cc(OC[C@@H](N)CC(C)C)c(C(C)C)cc21` [Example 129, (S)-8-((2-amino-4-methylpentyl)oxy)-9-isopropyl-4,6-dimethylbenzo[c][2,7]naphthyridin-5(6H)-one], the IC50 in assay [2] (given as IC50 range) and in assay [3] (setting [4]) was 1 to 10 nM in each case.
Regarding `Cc1nccc2c1c(=O)n(C)c1cc(OC[C@H](N)CC(C)C)c(Br)cc21` [Example 133, (R)-8-((2-amino-4-methylpentyl)oxy)-9-bromo-4,6-dimethylbenzo[c][2,7]naphthyridin-5(6H)-one], the IC50 in assay [2] (3 hours at room temperature) is 0.4 nM; in assay [3] (setting [5]) it was 2.3 nM.
As to `Cn1c(=O)c2cnccc2c2cc(Br)c(OCC(N)CC(F)(F)F)cc21` (stereo not drawn) [Example 140, 8-(2-amino-4,4,4-trifluorobutoxy)-9-bromo-6-methylbenzo[c][2,7]naphthyridin-5(6H)-one], the IC50 in assay [2] (given as IC50 range) is 1 to 10 nM; in assay [3] (setting [4]), 10 to 100 nM.
Consider `Cn1c(=O)c2cnccc2c2cc(Cl)c(OCC(N)CC(F)(F)F)cc21` (stereo not drawn) [Example 141, 8-(2-amino-4,4,4-trifluorobutoxy)-9-chloro-6-methylbenzo[c][2,7]naphthyridin-5(6H)-one], for which the IC50 lay within 1 to 10 nM in assay [2] (given as IC50 range) and 10 to 100 nM in assay [3] (setting [4]).
The like results for `CC(C)C[C@H](N)COc1cc2[nH]c(=O)c3cnccc3c2cc1Cl` [Example 142, (S)-8-((2-amino-4-methylpentyl)oxy)-9-chlorobenzo[c][2,7]naphthyridin-5(6H)-one] were, in that order, < 1 nM and 1 to 10 nM.
Turning to `Cc1nccc2c1c(=O)n(CCO)c1cc(OC[C@@H](N)CC(C)C)c(Br)cc21` [Example 143, (S)-8-((2-amino-4-methylpentyl)oxy)-9-bromo-6-(2-hydroxyethyl)-4-methylbenzo[c][2,7]naphthyridin-5(6H)-one], the IC50 in assay [2] (given as IC50 range) and in assay [3] (setting [4]) was 1 to 10 nM throughout.
`CNC(=O)Nc1nccc2c1c(=O)n(C)c1cc(OC[C@@H](N)CC(C)C)c(F)cc21` [Example 145, (S)-1-(8-((2-amino-4-methylpentyl)oxy)-9-fluoro-6-methyl-5-oxo-5,6-dihydrobenzo[c][2,7]naphthyridin-4-yl)-3-methylurea]: the IC50 in assay [2] (given as IC50 range) and in assay [3] (setting [4]) was 10 to 100 nM in each case.
In the case of `CC(C)NCC(O)COc1cc2c(cc1Br)c1ccncc1c(=O)n2C` (stereo not drawn) [Example 148, 9-bromo-8-(2-hydroxy-3-(isopropylamino)propoxy)-6-methylbenzo[c][2,7]naphthyridin-5(6H)-one], the IC50 in assay [2] (given as IC50 range) and in assay [3] (setting [4]) was 100 to 2000 nM in each case.
With `NCC1(CC(=O)O)CCCCC1` [Gabapentin], the Response in assay [1] (setting [6]) is given as 60%; in assay [1] (200 mg/kg sc, considered a 100% response), 100%.
In assay [1] (setting [6]), `CC(C)C[C@H](CN)CC(=O)O` [Pregabalin, pregabalin] displayed a Response of 90%.
